Where two headings read alike, the source gives them in different places.
Test system: IL-8
Test: Glucocorticoid transrepression assay, IL-8 inhibition (TR)
Format: cell-based
Conditions: Homo sapiens, NCl-H292 cells, TNFα 10 ng/ml; for Emax: read-out: IL-8 inhibition (TR) Emax % inhibition
Method: Human Lung epithelial cell line NCl-H292 cells were dissociated from stock flask using 0.05% trypsin/0.53 mM EDTA. Cells were suspended in complete medium and counted. Cells were plated in 96-well flat-bottom plates at 20K cells /well in 0.2 ml/well. Plates were incubated for 24-48 hours until cells were between 75-90% confluent. Medium was aspirated and replaced with medium containing various concentrations of steroids or antagonists. After 1 hour incubation at 37°, TNFα (10 ng/ml final concentration in 0.2 ml) was added and the cells incubated overnight. Control wells with and without TNF were included on each plate, as well as wells with TNF in addition to a maximum (10 μM) concentration of dexamethasone. The cell culture medium was sampled and IL-6 and IL-8 cytokine production was measured using the MSD Multi-Spot immunoassay.

## CC12Cc3cnn(-c4ccc(F)cc4)c3C=C1CCC1C2[C@@H](O)CC2(C)C1CC[C@]2(O)C(=O)Cn1cc(-c2cccnc2)nn1 (stereo partly shown) [Compound 1]
Table 6
  IC50: 0.06 to 20 nM
  Emax: > 80%

## CC12Cc3cnn(-c4ccc(F)cc4)c3C=C1CCC1C2[C@@H](O)CC2(C)C1CC[C@]2(O)C(=O)Nc1nc2cccnc2s1 (stereo partly shown) [Compound 1]
Table 2
  IC50: 0.06 to 20 nM
  Emax: > 80%

## C[C@]12Cc3cnn(-c4ccc(F)cc4)c3C=C1CCC1C2[C@@H](O)C[C@@]2(C)C1CC[C@]2(O)C(=O)CN1CCN(c2nc3ccccc3o2)CC1 (stereo partly shown) [Compound 1]
Table 5
  IC50: 0.06 to 20 nM
  Emax: > 80%

## C[C@]12Cc3cnoc3C=C1CCC1C2[C@@H](O)C[C@@]2(C)C1CC[C@]2(O)C(=O)CSc1nc2ccccc2o1 (stereo partly shown) [Compound 1]
Table 3
  Emax: < 60%

## C#CCN1CCN(CC(=O)[C@@]2(O)CCC3C4CCC5=Cc6c(cnn6-c6ccc(F)cc6)C[C@]5(C)C4[C@@H](O)C[C@@]32C)CC1 (stereo partly shown) [Compound 2]
Table 5
  Emax: < 60%

## CC12Cc3cnn(-c4ccc(F)cc4)c3C=C1CCC1C2[C@@H](O)CC2(C)C1CC[C@]2(O)C(=O)Cn1cc(Cc2ccccc2)nn1 (stereo partly shown) [Compound 2]
Table 6
  IC50: 0.06 to 20 nM
  Emax: > 80%

## CC12Cc3cnn(-c4ccc(F)cc4)c3C=C1CCC1C2[C@@H](O)CC2(C)C1CC[C@]2(O)C(=O)Nc1nc2ccccc2s1 (stereo partly shown) [Compound 2]
Table 2
  IC50: 0.06 to 20 nM
  Emax: > 80%

## C[C@]12Cc3cnoc3C=C1CCC1C2[C@@H](O)C[C@@]2(C)C1CC[C@]2(O)C(=O)CSc1cnc2ccccc2n1 (stereo partly shown) [Compound 2]
Table 3
  Emax: < 60%

## Cn1c(SCC(=O)[C@@]2(O)CCC3C4CCC5=Cc6c(cnn6-c6ccc(F)cc6)CC5(C)C4[C@@H](O)CC32C)nc2ccccc21 (stereo partly shown) [Compound 2]
Table 1
  IC50: 0.06 to 20 nM
  Emax: > 80%

## CC12Cc3cnn(-c4ccc(F)cc4)c3C=C1CCC1C2[C@@H](O)CC2(C)C1CC[C@]2(O)C(=O)NCc1ccccc1 (stereo partly shown) [Compound 3]
Table 2
  IC50: 0.06 to 20 nM
  Emax: > 80%

## CCOC(=O)c1cnn(CC(=O)[C@@]2(O)CCC3C4CCC5=Cc6c(cnn6-c6ccc(F)cc6)CC5(C)C4[C@@H](O)CC32C)c1 (stereo partly shown) [Compound 3]
Table 7
  IC50: 0.06 to 20 nM
  Emax: > 80%

## C[C@]12Cc3cnn(-c4ccc(F)cc4)c3C=C1CCC1C2[C@@H](O)C[C@@]2(C)C1CC[C@]2(O)C(=O)CN1CCN(c2ccccn2)CC1 (stereo partly shown) [Compound 3]
Table 5
  IC50: 0.06 to 20 nM
  Emax: > 80%

## C[C@]12Cc3cnoc3C=C1CCC1C2[C@@H](O)C[C@@]2(C)C1CC[C@]2(O)C(=O)CSc1ccccn1 (stereo partly shown) [Compound 3]
Table 3
  Emax: < 60%

## C[C@]12Cc3cnn(-c4ccc(F)cc4)c3C=C1CCC1C2[C@@H](O)C[C@@]2(C)C1CC[C@]2(O)C(=O)CN1CCN(c2ncccn2)CC1 (stereo partly shown) [Compound 4]
Table 5
  IC50: 0.06 to 20 nM
  Emax: > 80%

## C[C@]12Cc3cnn(-c4ccc(F)cc4)c3C=C1CCC1C2[C@@H](O)C[C@@]2(C)C1CC[C@]2(O)C(=O)NC1(c2ccccc2)CC1 (stereo partly shown) [Compound 4]
Table 2
  IC50: 0.06 to 20 nM
  Emax: > 80%

## C[C@]12Cc3cnoc3C=C1CCC1C2[C@@H](O)C[C@@]2(C)C1CC[C@]2(O)C(=O)CSc1ccc2ccccc2n1 (stereo partly shown) [Compound 4]
Table 3
  Emax: < 60%

## Cc1cnn(CC(=O)[C@@]2(O)CCC3C4CCC5=Cc6c(cnn6-c6ccc(F)cc6)CC5(C)C4[C@@H](O)CC32C)c1 (stereo partly shown) [Compound 4]
Table 7
  IC50: 0.06 to 20 nM
  Emax: > 80%

## C#CCNC(=O)[C@@]1(O)CCC2C3CCC4=Cc5c(cnn5-c5ccc(F)cc5)C[C@]4(C)C3[C@@H](O)C[C@@]21C (stereo partly shown) [Compound 5]
Table 2
  IC50: 0.06 to 20 nM
  Emax: > 80%

## CC12Cc3cnn(-c4ccc(F)cc4)c3C=C1CCC1C2[C@@H](O)CC2(C)C1CC[C@]2(O)C(=O)CSc1ccccn1 (stereo partly shown) [Compound 5]
Table 1
  IC50: 0.06 to 20 nM
  Emax: > 80%

## C[C@]12Cc3cnn(-c4ccc(F)cc4)c3C=C1CCC1C2[C@@H](O)C[C@@]2(C)C1CC[C@]2(O)C(=O)CN1CCN(Cc2ccc(C(F)(F)F)cc2)CC1 (stereo partly shown) [Compound 5]
Table 5
  IC50: 0.06 to 20 nM
  Emax: > 80%

## Cn1c(SCC(=O)[C@@]2(O)CCC3C4CCC5=Cc6oncc6C[C@]5(C)C4[C@@H](O)C[C@@]32C)nc2ccccc21 (stereo partly shown) [Compound 5]
Table 3
  IC50: 401 to 1000 nM
  Emax: < 60%

From US20120171126A1, “NOVEL [3,2-c] HETEROARYL STEROIDS AS GLUCOCORTICOID RECEPTOR AGONISTS COMPOSITIONS AND USES THEREOF” (priority 2009, published 2012)
